Measured values taken from patent US3997506A (priority 1974, dated 1976).
Like-named read-outs stand apart in the source and are kept apart here.

Experiments:
[1] = test system: human leucocytes; details: Table 11; for Count of leucocytes after 72 hours: Culture II
[2] = test system: human leucocytes; assay: in vitro; format: cell-based; details: Cultures I and II
Procedure: (§1) The cytotoxicity has been investigated on human leucocytes by means of the viability test with Trypan blue.
(§2) a. In a first experimentation cultures of leucocytes of a voluntary […] were prepared and caused to undergo incubation with phytohemagglutinin (PHA) and with different concentrations of colchicine or of its derivative (C1 = 2.5 μg/ml of culture, C3 = 10 μg/ml, C5 = 30 μg/ml, C6 = 50 μg/ml). Leucocytes only containing PHA served as controls.
(§3) After 3, 42, 68 and 72 hours of incubation a sample of each culture was contacted by a drop of Trypan blue and laid on a slide of a microscope. Then took place the counting of the dead cells (those with assumed an […] colour) and of all the cells present on the slide in order to obtain the ratio of the number of dead cells to the total number of cells. The results expressed as a rate in per cent are shown in the accompanying table 8.
(§4) b. After the experimentation which has just been described, the study of cytotoxicity has been continued with two other samples of human leucocytes still by means of the viability test with Trypan blue.
(§5) C1 = 2.5 μg/ml of culture
(§6) C6 = 50 μg/ml of culture;
(§7) and for the carboxy-1-adamantane fraction to:
(§8) C3 = 4.5 μg/ml of culture
(§9) C6 = 22.5 μg/ml of culture.
(§10) Leucocytes only containing phytohemagglutinin and others containing phytohemagglutinin and 50 μl of methanol served as controls.
(§11) The percentage of dead cells was determined after different numbers of hours of incubation.

[3] = in vitro; format: cell-based, human; details: human, leucocytes, Culture II, read-out: % of dead cells
Procedure: as §1, §2, §3, §4, §5, §6, §7, §8, §9, §10, §11

[4] = carboxy-1-adamantane C3 = 4.5 μg/ml
[5] = carboxy-1-adamantane C6 = 22.5 μg/ml

Structure (SMILES): O=C(O)C12CC3CC(CC(C3)C1)C2 [carboxy-1-adamantane]
- Count of leucocytes after 72 hours [1, 4]: 215,000
- Count of leucocytes after 72 hours [1, 5]: 230,000
- number of leucocytes in absence or presence of substance (in words) ([1]; very approximative): remain substantially the same
- cytotoxicity, cultures I and II (in words) [2]: no effect until 46 hours of incubation
- cytotoxicity at 23 h [3, 4]: 18%
- cytotoxicity at 23 h [3, 5]: 14%
- cytotoxicity at 46 h [3, 4]: 12%
- cytotoxicity at 46 h [3, 5]: 10%
- cytotoxicity at 72 h [3, 4]: 25%
- cytotoxicity at 72 h [3, 5]: 25%
